Test results from paper PMC4303209, “A novel phosphatidylinositol 3-kinase (PI3K) inhibitor directs a potent FOXO-dependent, p53-independent cell cycle arrest phenotype characterized by the differential induction of a subset of FOXO-regulated genes” (Breast Cancer Research : BCR, 2014).

Test system: MCF-7 breast cancer cells
Assay: Microarray gene expression analysis (Agilent whole human genome 4 x 44K; compound vs DMSO, LIMMA log2 fold change)
Format: cell-based
[1] = MCF-7, 100nM, six hours, 1.5-fold expression change threshold

SMILES: Cn1ncc2c(N3CCOCC3)nc(-c3cccc(O)c3)nc21 [ETP-45658]
- ESCO1 log2FC (Gene 114799, cell cycle genes): 0.560
- UHRF2 log2FC (Gene 115426, cell cycle genes): 0.500
- KLHDC3 log2FC (Gene 116138, cell cycle genes): -0.048
- CNTROB log2FC (Gene 116840, cell cycle genes): -0.102
- NEDD1 log2FC (Gene 121441, cell cycle genes): 0.443
- HEXIM2 log2FC (Gene 124790, cell cycle genes): 0.577
- ARL8A log2FC (Gene 127829, cell cycle genes): 0.446
- UHMK1 log2FC (Gene 127933, cell cycle genes): -0.099
- IQGAP3 log2FC (Gene 128239, cell cycle genes): 0.155
- NUP35 log2FC (Gene 129401, cell cycle genes): -0.169
- MITD1 log2FC (Gene 129531, cell cycle genes): 0.836
- NUDT16 log2FC (Gene 131870, cell cycle genes): -0.327
- ZFP42 log2FC (Gene 132625, cell cycle genes): 0.031
- JMY log2FC (Gene 133746, cell cycle genes): 1.016
- HUS1B log2FC (Gene 135458, cell cycle genes): -0.791
- NEK7 log2FC (Gene 140609, cell cycle genes): 0.053
- CTCFL log2FC (Gene 140690, cell cycle genes): -0.021
- PSMA8 log2FC (Gene 143471, cell cycle genes): 0.068
- SESN3 log2FC (Gene 143686, cell cycle genes): 0.057
- PIWIL4 log2FC (Gene 143689, cell cycle genes): 0.405
- E2F7 log2FC (Gene 144455, cell cycle genes): -0.474
- RAD9B log2FC (Gene 144715, cell cycle genes): 0.061
- KCTD11 log2FC (Gene 147040, cell cycle genes): 0.142
- PYHIN1 log2FC (Gene 149628, cell cycle genes): -0.052
- PPP1R1C log2FC (Gene 151242, cell cycle genes): 0.132
- SGOL2 log2FC (Gene 151246, cell cycle genes): 0.811
- SGOL1 log2FC (Gene 151648, cell cycle genes): 0.489
- ROPN1B log2FC (Gene 152015, cell cycle genes): 0.058
- DAB2IP log2FC (Gene 153090, cell cycle genes): -0.220
- CDCA2 log2FC (Gene 157313, cell cycle genes): 0.547
- ESCO2 log2FC (Gene 157570, cell cycle genes): 0.730
- SASS6 log2FC (Gene 163786, cell cycle genes): 0.483
- WBP2NL log2FC (Gene 164684, cell cycle genes): -0.063
- THAP5 log2FC (Gene 168451, cell cycle genes): 0.256
- FLCN log2FC (Gene 201163, cell cycle genes): 0.968
- STRA13 log2FC (Gene 201254, cell cycle genes): -0.358
- TUBB log2FC (Gene 203068, cell cycle genes): -0.709
- REEP3 log2FC (Gene 221035, cell cycle genes): -0.240
- C6orf89 log2FC (Gene 221477, cell cycle genes): -0.508
- SPDYA log2FC (Gene 245711, cell cycle genes): -0.071
- CDC26 log2FC (Gene 246184, cell cycle genes): -0.688
- ASPM log2FC (Gene 259266, cell cycle genes): 1.100
- SLC39A5 log2FC (Gene 283375, cell cycle genes): -0.022
- GAS2L3 log2FC (Gene 283431, cell cycle genes): 0.617
- NSMCE2 log2FC (Gene 286053, cell cycle genes): 1.151
- LIN9 log2FC (Gene 286826, cell cycle genes): 1.274
- TMPRSS11A log2FC (Gene 339967, cell cycle genes): 0.046
- NUP43 log2FC (Gene 348995, cell cycle genes): 0.749
- APITD1 log2FC (Gene 378708, cell cycle genes): 0.144
- SETD8 log2FC (Gene 387893, cell cycle genes): 0.093
- PIM3 log2FC (Gene 415116, cell cycle genes): 0.693
- PIWIL3 log2FC (Gene 440822, cell cycle genes): -0.066
- expression of FOXO-dependent apoptosis genes including TNFSF10, BCL211 and FASLG (array) (MCF-7): did not significantly change
- number of induced (upregulated) genes [1]: 1,549
- number of repressed (downregulated) genes [1]: 989
- CCND1, SPRY2 and MMP9 expression (array) (MCF-7, FOXO target genes): significantly downregulated
- expression of CCNG2, KLHL24, DDIT3, CITED2 and RICTOR (array) (MCF-7, FOXO target genes): significantly upregulated
- bound FOXO sites (transcription factor enrichment analysis) (MCF-7, upregulated genes): highly significant increase
- MAD1L1 log2FC (cell cycle genes): -0.032
- ACSL5 log2FC (gene ACSL5 (51703), apoptosis genes): 0.011
- log2FC (gene ACTR1A (Gene 10121), cell cycle genes): -0.180
- ADAMTS20 log2FC (gene ADAMTS20 (80070), apoptosis genes): 0.014
- ADIPOQ log2FC (gene ADIPOQ (9370), apoptosis genes): 0.013
- ADRA1A log2FC (gene ADRA1A (148), apoptosis genes): 0.060
- AGTR2 log2FC (gene AGTR2 (186), apoptosis genes): 0.004
- log2FC AKAP8 (gene AKAP8 (Gene 10270), cell cycle genes): -0.037
- ALB log2FC (gene ALB (213), apoptosis genes): -0.050
- ALOX12 log2FC (gene ALOX12 (239), apoptosis genes): 0.083
- ALX3 log2FC (gene ALX3 (257), apoptosis genes): -0.018
- ALX4 log2FC (gene ALX4 (60529), apoptosis genes): -0.043
- log2FC (gene ANAPC13 (Gene 25847), cell cycle genes): -0.342
- ANKRD13C log2FC (gene ANKRD13C (81573), apoptosis genes): 0.077
- APBB1 log2FC (gene APBB1 (322), apoptosis genes): 0.078
- APOH log2FC (gene APOH (350), apoptosis genes): -0.009
- AQP1 log2FC (gene AQP1 (358), apoptosis genes): -0.015
- ARHGAP10 log2FC (gene ARHGAP10 (79658), apoptosis genes): -0.010
- ARHGEF6 log2FC (gene ARHGEF6 (9459), apoptosis genes): -0.041
- ARHGEF16 log2FC (gene ARHGEF16 (27237), apoptosis genes): 0.078
- ARHGEF18 log2FC (gene ARHGEF18 (23370), apoptosis genes): -0.051
- ATOH1 log2FC (gene ATOH1 (474), apoptosis genes): -0.034
- ATPIF1 log2FC (gene ATPIF1 (93974), apoptosis genes): 0.069
- log2FC (gene ATR (Gene 545), cell cycle genes): 0.346
- log2FC (gene BAD (Gene 572), cell cycle genes): 0.276
- BCL2L10 log2FC (gene BCL2L10 (10017), apoptosis genes): -0.024
- BDKRB2 log2FC (gene BDKRB2 (624), apoptosis genes): 0.060
- BIRC2 log2FC (gene BIRC2 (329), apoptosis genes): 0.082
- BIRC8 log2FC (gene BIRC8 (112401), apoptosis genes): -0.014
- BMP2 log2FC (gene BMP2 (650), apoptosis genes): -0.038
- log2FC (gene BMP4 (Gene 652), cell cycle genes): 0.407
- BMP5 log2FC (gene BMP5 (653), apoptosis genes): 0.022
- BOK log2FC (gene BOK (666), apoptosis genes): -0.021
- log2FC (gene BRE (Gene 9577), cell cycle genes): -0.322
- BTK log2FC (gene BTK (695), apoptosis genes): -0.064
- log2FC (gene BUB1B (Gene 701), cell cycle genes): 0.344
- C1QBP log2FC (gene C1QBP (708), apoptosis genes): 0.052
- C3orf38 log2FC (gene C3orf38 (285237), apoptosis genes): -0.027
- log2FC (gene CAMK2B (Gene 816), cell cycle genes): -0.123
- CAPN3 log2FC (gene CAPN3 (825), apoptosis genes): 0.007
- log2FC CAPN3 (gene CAPN3 (Gene 825), cell cycle genes): 0.007
- CARD9 log2FC (gene CARD9 (64170), apoptosis genes): -0.027
- CARD14 log2FC (gene CARD14 (79092), apoptosis genes): 0.026
- log2FC (gene CASP3 (Gene 836), cell cycle genes): 0.546
- CASP10 log2FC (gene CASP10 (843), apoptosis genes): -0.013
- CASP12 log2FC (gene CASP12 (120329), apoptosis genes): 0.004
- CCK log2FC (gene CCK (885), apoptosis genes): -0.026
- CCL19 log2FC (gene CCL19 (6363), apoptosis genes): -0.021
- log2FC (gene CCNB2 (Gene 9133), cell cycle genes): 0.253
- log2FC (gene CCNH (Gene 902), cell cycle genes): 0.426
- log2FC (gene CCNT2 (Gene 905), cell cycle genes): 0.221
- CD38 log2FC (gene CD38 (952), apoptosis genes): -0.014
- CD40LG log2FC (gene CD40LG (959), apoptosis genes): -0.031
- CD248 log2FC (gene CD248 (57124), apoptosis genes): -0.012
- log2FC (gene CDC73 (Gene 79577), cell cycle genes): 0.443
- CDH1 log2FC (gene CDH1 (999), apoptosis genes): 0.047
- log2FC CDH13 (gene CDH13 (Gene 1012), cell cycle genes): -0.017
- log2FC CDK2AP1 (gene CDK2AP1 (Gene 8099), cell cycle genes): -0.041
- CDK5 log2FC (gene CDK5 (1020), apoptosis genes): -0.089
- log2FC CDK5RAP1 (gene CDK5RAP1 (Gene 51654), cell cycle genes): 0.018
- log2FC CDKN2B (gene CDKN2B (Gene 1030), cell cycle genes): 0.013
- log2FC (gene CENPJ (Gene 55835), cell cycle genes): 0.293
- log2FC (gene CENPK (Gene 64105), cell cycle genes): 0.519
- log2FC (gene CETN3 (Gene 1070), cell cycle genes): 0.369
- log2FC (gene CHEK2 (Gene 11200), cell cycle genes): 0.312
- CHIA log2FC (gene CHIA (27159), apoptosis genes): -0.023
- CIDEA log2FC (gene CIDEA (1149), apoptosis genes): -0.026
- CLC log2FC (gene CLC (1178), apoptosis genes): -0.009
- CLEC5A log2FC (gene CLEC5A (23601), apoptosis genes): -0.012
- CLSPN log2FC (gene CLSPN (63967), apoptosis genes): 0.066
- CNTFR log2FC (gene CNTFR (1271), apoptosis genes): -0.014
- COL2A1 log2FC (gene COL2A1 (1280), apoptosis genes): 0.036
- COL4A3 log2FC (gene COL4A3 (1285), apoptosis genes): 0.173
- COMP log2FC (gene COMP (1311), apoptosis genes): -0.018
- log2FC (gene COPS5 (Gene 10987), cell cycle genes): 0.503
- log2FC (gene CRLF3 (Gene 51379), cell cycle genes): 0.438
- log2FC (gene CSNK2B (Gene 1460), cell cycle genes): -0.263
- CST3 log2FC (gene CST3 (1471), apoptosis genes): -0.001
- CTLA4 log2FC (gene CTLA4 (1493), apoptosis genes): -0.015
- CXCR4 log2FC (gene CXCR4 (7852), apoptosis genes): -0.044
- CYR61 log2FC (gene CYR61 (3491), apoptosis genes): -0.093
- DAPK2 log2FC (gene DAPK2 (23604), apoptosis genes): 0.127
- DAXX log2FC (gene DAXX (1616), apoptosis genes): 0.003
- log2FC DAXX (gene DAXX (Gene 1616), cell cycle genes): 0.003
- log2FC (gene DCLRE1B (Gene 64858), cell cycle genes): -0.240
- log2FC (gene DDX11 (Gene 1663), cell cycle genes): -0.382
- DDX47 log2FC (gene DDX47 (51202), apoptosis genes): 0.072
- DEDD2 log2FC (gene DEDD2 (162989), apoptosis genes): 0.036
- DFFB log2FC (gene DFFB (1677), apoptosis genes): -0.039
- log2FC (gene DIAPH2 (Gene 1730), cell cycle genes): 0.484
- log2FC DIRAS3 (gene DIRAS3 (Gene 9077), cell cycle genes): 0.0064
- DMPK log2FC (gene DMPK (1760), apoptosis genes): -0.105
- DNM2 log2FC (gene DNM2 (1785), apoptosis genes): -0.047
- DPF1 log2FC (gene DPF1 (8193), apoptosis genes): -0.079
- log2FC ECD (gene ECD (Gene 11319), cell cycle genes): -0.009
- EGR3 log2FC (gene EGR3 (1960), apoptosis genes): -0.131
- EGR4 log2FC (gene EGR4 (1961), apoptosis genes): -0.00345
- ELMO1 log2FC (gene ELMO1 (9844), apoptosis genes): 0.077
- EPB41L3 log2FC (gene EPB41L3 (23136), apoptosis genes): -0.033
